Test results as given in patent US7598293B2, “Compounds and their use in medicine, process for their preparation and pharmaceutical compositions containing them” (Dr. Reddy's Laboratories, Inc., priority 2001, dated 2009).

Columns and labels:
Swiss albino mice = test: Plasma triglyceride and total cholesterol lowering activity in Swiss albino mice; type: in vivo, mouse; settings: results after 6 days
Procedure: c) Plasma triglyceride and total cholesterol lowering activity in Swiss albino mice Male Swiss albino mice (SAM) were obtained from NIN and housed in DRF animal house. All these animals are maintained under 12 hour light and dark cycle at 25±1° C. Animals are given standard laboratory chow (NIN, Hyderabad, India) and water, ad libitum. SAM of 20-25 g body weight range and Guinea pigs of 500-700 g body weight range are used (Oliver, P., Plancke, M. O., Marzin, D., Clavey, V., Sauzieres, J and Fruchart, J. C. Effects of fenofibrate, gemfibrozil and nicotinic acid on plasma lipoprotein levels in normal and hyperlipidemic mice. Atherosclerosis. 1988. 70: 107-114).
The test compounds can be administered orally to Swiss albino mice at 0.3 to 30 mg/kg/day dose for 6 days. Control mice are treated with vehicle (0.25% Carboxymethylcellulose; dose 10 ml/kg). The test compounds are administered orally to Guinea pigs at 0.3 to 30 mg/kg/day dose for 6 days. Control animals are treated with vehicle (0.25% Carboxymethylcellulose; dose 5 ml/kg). The blood samples can bc collected in fed state 1 hour after drug administration on 0 and 6 day of treatment. The blood can be collected from the retro-orbital sinus through heparinised capillary in EDTA containing tubes. After centrifugation, plasma sample was separated for triglyceride (Wieland, O. Methods of Enzymatic analysis. Bergermeyer, H. O., Ed., 1963. 211-214; Trinder, P. Ann. Clin. Biochem. 1969. 6: 24-27). Measurement of plasma triglyceride is done using commercial kits (Dr. Reddy's Diagnostic Division, Hyderabad, India).
(§1) 1. Percent reduction in Blood sugar/triglycerides/total cholesterol will be calculated according to the formula:
(§2) [formula] • OC=Zero day control group value • OT=Zero day treated group value • TC=Test day control group value • TT=Test day treated group value

[1] = test system: cholesterol fed Syrian Hamsters; test: Body weight reducing effect in cholesterol fed hamsters; type: in vivo, hamster; settings: 3 mg/kg oral
Procedure: d) Body weight reducing effect in cholesterol fed hamsters: Male Syrian Hamsters are procured from NIN, Hyderabad, India. Animals are housed at DRF animal house under 12 hour light and dark cycle at 25±1° C. with free access to food and water. Animals are maintained with 1% cholesterol containing standard laboratory chow (NIN) from the day of treatment.
The test compounds can be administered orally at 1 to 30 mg/kg/day dose for 15 days. Control group animals are treated with vehicle (Mill Q water, dose 10 ml/kg/day). Body weights are measured on every 3rd day.
as §1, §2

C57BL/KsJ-db/db mice = test: Efficacy in genetic models: blood sugar and triglyceride lowering in db/db mice; type: in vivo, mouse; settings: 3 mg/kg oral, results after 6 days
From the text: a) Efficacy in Genetic Models Mutation in colonies of laboratory animals and different sensitivities to dietary regimens has made the development of animal models with non-insulin dependent diabetes and hyperlipidemia associated with obesity and insulin resistance possible. Genetic models such as db/db and ob/ob (Diabetes, (1982) 31(1): 1-6) mice and zucker fa/fa rats have been developed by the various laboratories for understanding the pathophysiology of disease and testing the efficacy of new antidiabetic compounds (Diabetes, (1983) 32: 830-838; Annu. Rep. Sankyo Res. Lab. (1994). 46: 1-57). The homozygous animals, C57 BL/KsJ-db/db mice developed by Jackson Laboratory, US, are obese, hyperglycemic, hyperinsulinemic and insulin resistant (J. Clin. Invest., (1990) 85: 962-967), whereas heterozygous are lean and normoglycemic. In db/db model, mouse progressively develops insulinopenia with age, a feature commonly observed in late stages of human type II diabetes when blood sugar levels are insufficiently controlled. The state of pancreas and its course vary according to the models. Since this model resembles that of type II diabetes mellitus, the compounds of the present invention will be tested for blood sugar and triglycerides lowering activities.
Male C57BL/KsJ-db/db mice of 8 to 14 weeks age, having body weight range of 35 to 60 grams, bred at Dr. Reddy's Research Foundation (DRF) animal house, were used in the experiment. The mice are provided with standard feed (National Institute of Nutrition (NIN), Hyderabad, India) and acidified water, ad libitum. The animals having more than 350 mg/dl blood sugar will be used for testing. The number of animals in each group will be 4.
Test compounds are suspended on 0.25% carboxymethyl cellulose and administered to test group at a dose of 0.1 mg to 30 mg/kg through oral gavage daily for 6 days. The control group receives vehicle (dose 10 ml/kg). On 6th day the blood samples will be collected one hour after administration of test compounds/vehicle for assessing the biological activity.
The random blood sugar and triglyceride levels can be measured by collecting blood (100 μl) through orbital sinus, using heparinised capillary in tubes containing EDTA which was centrifuged to obtain plasma. The plasma glucose and triglyceride levels can be measured spectrometrically, by glucose oxidase and glycerol-3-PO4 oxidase/peroxidase enzyme (Dr. Reddy's Lab. Diagnostic Division Kits, Hyderabad, India) methods respectively.
The blood sugar and triglycerides lowering activities of the test compound are calculated according to the formula.
as §1, §2

For `CCOC(Cc1ccc(NCCCc2ccc(OS(=O)(=O)c3ccc(C)cc3)cc2)cc1)C(=O)O` (centres unmarked) [Example 19, 2-ethoxy-3-[4-{3-(4-(toluene-4-sulfonyloxy)phenyl)propylamino}phenyl]propionate], the “Triglyceride Lowering (%)” value (Swiss albino mice; 1 mg/kg oral) was 39%.
With `CCOC(Cc1ccc(NCCCc2ccc(N(C(=O)OC(C)(C)C)S(C)(=O)=O)cc2)cc1)C(=O)O` (centres unmarked) [Example 30] the “Triglyceride Lowering (%)” value (Swiss albino mice; 3 mg/kg oral) was 41%.
With “2-Ethoxy-3-[4-(4-methanesulfonyloxybenzylamino)phenyl]propionic acid arginine salt [Example 38]” the “Triglyceride Lowering (%)” value (Swiss albino mice; 1 mg/kg oral) was 41%.
In the case of `CCOC(Cc1ccc(NC(=O)OCCCc2ccc(OS(C)(=O)=O)cc2)cc1)C(=O)O` (centres unmarked) [Example 16, 2-Ethoxy-3-[4-{3-(4-methanesulfonyloxyphenyl)propyloxycarbonylamino}phenyl]propionic acid], the “Reduction in Body weight (%)” value [1] is reported as 19%, the “Reduction in Total Cholesterol (%)” value [1] is reported as 63% and the “Reduction in Triglyceride (%)” value [1] is reported as 77%. The “Reduction in Blood Glucose Level (%)” value (C57BL/KsJ-db/db mice) was 15% and the “Triglyceride Lowering (%)” value (C57BL/KsJ-db/db mice) was 39%.
